Data reported in KR20180046249A, “리소스퍼믹 액시드를 포함하는 구강질환 예방 또는 치료용 조성물” (주식회사 엘지생활건강, priority 2016, dated 2018).

What was measured:
Type in all cases: cell-based
[1] = system: Streptococcus mutans; test: Paper disc antibacterial test, Streptococcus mutans; conditions: 24-48 h incubation, untreated: no inhibition
[2] = system: Porphyromonas gingivalis; test: Paper disc antibacterial test, Porphyromonas gingivalis; conditions: anaerobic, 24-48 h incubation, untreated: no inhibition
[3] = system: PGE2; test: PGE2 inhibition in LPS-stimulated macrophages (ELISA); conditions: LPS 1 ㎍/ml

Question: `O=C(/C=C/c1ccc(O)c2c1[C@H](C(=O)O)[C@@H](c1ccc(O)c(O)c1)O2)O[C@H](Cc1ccc(O)c(O)c1)C(=O)O` [리소스퍼믹 액시드, lithospermic acid] was tested. Which “growth inhibition zone diameter” value ([1]; 10 mg/disc, 8 mm disc, 37, BHI) did it give?
Answer: The value was about 10.0 mm.

Question: What about the zone of inhibition at 10 mg/disc ([1]; Streptococcus mutans, 8 mm disc, 37, BHI, read-out: growth inhibition zone diameter) of the same compound?
Answer: Its zone of inhibition at 10 mg/disc is 10.7 mm.

Question: What about the “growth inhibition zone diameter” value ([2]; 10 mg/disc, 8 mm disc, 37, TSA Hemin Menadione medium) of the same compound?
Answer: Its value is about 10.0 mm.

Question: And the zone of inhibition at 10 mg/disc ([2]; Porphyromonas gingivalis, 8 mm disc, 37, TSA Hemin Menadione medium, read-out: growth inhibition zone diameter)?
Answer: Its zone of inhibition at 10 mg/disc is 9.8 mm.

Question: And the “PGE2 inhibition, concentration dependence (in words)” value [3]?
Answer: Its value is “농도 의존적으로 PGE2를 억제하는 효과”.

Question: What about the inhibition at 2 ppm ([3]; Macrophage, 2ppm, 24 h, compared with LPS-only group) of the same compound?
Answer: Its inhibition at 2 ppm is about 50%.

Question: And the inhibition at 20 ppm ([3]; Macrophage, 20ppm, 24 h, compared with LPS-only group)?
Answer: The inhibition at 20 ppm was about 70%.
